Assay results as given in ChEMBL document CHEMBL4507281, “Data for DCP probe BI-4394” (2021).

How the values were obtained:
[1] = biological target: Ephrin type-B receptor 3 (Homo sapiens) (UniProt P54753); settings: Compound concentration 100.0 nM
[2] = biological target: Calcium/calmodulin-dependent protein kinase kinase 1 (Homo sapiens) (UniProt Q8N5S9); settings: Compound concentration 100.0 nM
[3] = biological target: Serine/threonine-protein kinase PknB (Mycobacterium tuberculosis) (UniProt P9WI81); settings: Compound concentration 100.0 nM
[4] = biological target: T1, Phosphorylase b kinase regulatory subunit alpha, liver isoform (Homo sapiens) (UniProt P46019); settings: Compound concentration 100.0 nM
T1 sequence (whole entry): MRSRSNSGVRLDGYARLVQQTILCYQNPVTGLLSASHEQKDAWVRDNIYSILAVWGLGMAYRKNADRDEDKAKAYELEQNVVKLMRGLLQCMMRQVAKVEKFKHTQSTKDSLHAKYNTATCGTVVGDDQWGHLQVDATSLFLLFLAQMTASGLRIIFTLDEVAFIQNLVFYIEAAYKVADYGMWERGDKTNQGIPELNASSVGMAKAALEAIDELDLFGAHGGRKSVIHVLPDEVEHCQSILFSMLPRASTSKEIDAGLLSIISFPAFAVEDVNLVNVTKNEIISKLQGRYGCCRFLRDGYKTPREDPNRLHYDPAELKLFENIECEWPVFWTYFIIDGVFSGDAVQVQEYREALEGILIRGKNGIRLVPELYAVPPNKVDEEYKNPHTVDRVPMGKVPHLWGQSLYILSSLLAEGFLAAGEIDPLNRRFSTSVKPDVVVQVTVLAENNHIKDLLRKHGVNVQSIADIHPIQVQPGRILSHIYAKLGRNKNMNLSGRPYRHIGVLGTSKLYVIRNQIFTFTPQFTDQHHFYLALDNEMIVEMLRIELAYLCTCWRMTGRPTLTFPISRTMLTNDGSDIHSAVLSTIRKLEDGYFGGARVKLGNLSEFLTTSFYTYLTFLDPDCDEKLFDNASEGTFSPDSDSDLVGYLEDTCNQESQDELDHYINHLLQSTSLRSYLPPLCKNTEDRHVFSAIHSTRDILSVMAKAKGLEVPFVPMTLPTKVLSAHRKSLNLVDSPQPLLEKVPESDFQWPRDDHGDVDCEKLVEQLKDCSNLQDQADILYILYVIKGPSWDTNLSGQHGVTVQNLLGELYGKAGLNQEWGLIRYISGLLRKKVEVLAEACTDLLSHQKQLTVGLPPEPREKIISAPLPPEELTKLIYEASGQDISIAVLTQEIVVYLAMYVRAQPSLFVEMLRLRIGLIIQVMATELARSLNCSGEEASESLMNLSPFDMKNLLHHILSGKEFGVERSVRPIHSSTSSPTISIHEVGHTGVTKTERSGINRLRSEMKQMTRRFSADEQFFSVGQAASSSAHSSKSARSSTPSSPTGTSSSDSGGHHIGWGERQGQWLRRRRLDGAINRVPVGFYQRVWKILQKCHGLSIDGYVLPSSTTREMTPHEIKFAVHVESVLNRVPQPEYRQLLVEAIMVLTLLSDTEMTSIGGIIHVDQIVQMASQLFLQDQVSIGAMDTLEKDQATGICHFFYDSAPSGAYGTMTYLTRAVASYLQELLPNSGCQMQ

[5] = biological target: RAC-alpha serine/threonine-protein kinase (Homo sapiens) (UniProt P31749); settings: Compound concentration 100.0 nM
[6] = biological target: Tyrosine-protein kinase Lck (Homo sapiens) (UniProt P06239); settings: Compound concentration 100.0 nM
Tyrosine-protein kinase Lck (Homo sapiens), sequence (P06239 2-509 limits assumed): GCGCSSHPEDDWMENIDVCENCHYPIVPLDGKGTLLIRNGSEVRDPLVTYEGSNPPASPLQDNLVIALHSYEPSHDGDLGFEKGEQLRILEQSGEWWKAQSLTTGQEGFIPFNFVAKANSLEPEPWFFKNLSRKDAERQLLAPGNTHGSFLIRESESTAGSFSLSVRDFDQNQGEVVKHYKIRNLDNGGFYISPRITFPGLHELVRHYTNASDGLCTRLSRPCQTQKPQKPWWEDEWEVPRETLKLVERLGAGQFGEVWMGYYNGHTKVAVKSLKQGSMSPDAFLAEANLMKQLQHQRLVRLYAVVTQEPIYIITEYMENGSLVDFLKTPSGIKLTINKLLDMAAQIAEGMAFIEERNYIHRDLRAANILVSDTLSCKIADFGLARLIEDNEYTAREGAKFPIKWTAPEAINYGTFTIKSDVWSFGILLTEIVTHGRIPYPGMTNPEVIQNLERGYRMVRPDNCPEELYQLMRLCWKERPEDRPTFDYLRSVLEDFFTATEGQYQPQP

[7] = biological target: Fibroblast growth factor receptor 3 (Homo sapiens) (UniProt P22607); settings: Compound concentration 100.0 nM
[8] = biological target: Serine/threonine-protein kinase Nek10 (Homo sapiens) (UniProt Q6ZWH5); settings: Compound concentration 100.0 nM
[9] = biological target: Calcium/calmodulin-dependent protein kinase type II subunit beta (Homo sapiens) (UniProt Q13554); settings: Compound concentration 100.0 nM
[10] = biological target: cGMP-dependent protein kinase 1 (Homo sapiens) (UniProt Q13976); settings: Compound concentration 100.0 nM
[11] = biological target: Beta-3 adrenergic receptor (Homo sapiens) (UniProt P13945); settings: Compound concentration 10.0 uM
Beta-3 adrenergic receptor (Homo sapiens), sequence (P13945 whole entry, looked up): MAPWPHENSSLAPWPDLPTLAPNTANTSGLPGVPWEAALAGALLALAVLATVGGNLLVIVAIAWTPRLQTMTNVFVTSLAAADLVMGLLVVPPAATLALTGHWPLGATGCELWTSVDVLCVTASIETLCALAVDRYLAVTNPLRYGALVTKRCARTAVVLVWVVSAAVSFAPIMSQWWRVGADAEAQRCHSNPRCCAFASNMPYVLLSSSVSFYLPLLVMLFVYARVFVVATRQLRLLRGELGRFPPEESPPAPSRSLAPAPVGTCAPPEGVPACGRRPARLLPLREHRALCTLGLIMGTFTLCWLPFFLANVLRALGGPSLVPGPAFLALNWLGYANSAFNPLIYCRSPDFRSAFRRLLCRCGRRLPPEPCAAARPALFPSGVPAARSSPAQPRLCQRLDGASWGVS

[12] = biological target: Ephrin type-A receptor 2 (Homo sapiens) (UniProt P29317); settings: Compound concentration 100.0 nM
[13] = biological target: Ribosomal protein S6 kinase alpha-1 (Homo sapiens) (UniProt Q15418); settings: Compound concentration 100.0 nM
[14] = biological target: Serine/threonine-protein kinase Nek9 (Homo sapiens) (UniProt Q8TD19); settings: Compound concentration 100.0 nM
[15] = system: Tyrosine-protein kinase ABL1 (Homo sapiens), P00519 [F317I]; settings: Compound concentration 100.0 nM
[16] = biological target: BMP-2-inducible protein kinase (Homo sapiens) (UniProt Q9NSY1); settings: Compound concentration 100.0 nM
[17] = biological target: Ephrin type-A receptor 3 (Homo sapiens) (UniProt P29320); settings: Compound concentration 100.0 nM
[18] = biological target: Mitogen-activated protein kinase kinase kinase 19 (Homo sapiens) (UniProt Q56UN5); settings: Compound concentration 100.0 nM
Mitogen-activated protein kinase kinase kinase 19 (Homo sapiens), sequence (Q56UN5 whole entry): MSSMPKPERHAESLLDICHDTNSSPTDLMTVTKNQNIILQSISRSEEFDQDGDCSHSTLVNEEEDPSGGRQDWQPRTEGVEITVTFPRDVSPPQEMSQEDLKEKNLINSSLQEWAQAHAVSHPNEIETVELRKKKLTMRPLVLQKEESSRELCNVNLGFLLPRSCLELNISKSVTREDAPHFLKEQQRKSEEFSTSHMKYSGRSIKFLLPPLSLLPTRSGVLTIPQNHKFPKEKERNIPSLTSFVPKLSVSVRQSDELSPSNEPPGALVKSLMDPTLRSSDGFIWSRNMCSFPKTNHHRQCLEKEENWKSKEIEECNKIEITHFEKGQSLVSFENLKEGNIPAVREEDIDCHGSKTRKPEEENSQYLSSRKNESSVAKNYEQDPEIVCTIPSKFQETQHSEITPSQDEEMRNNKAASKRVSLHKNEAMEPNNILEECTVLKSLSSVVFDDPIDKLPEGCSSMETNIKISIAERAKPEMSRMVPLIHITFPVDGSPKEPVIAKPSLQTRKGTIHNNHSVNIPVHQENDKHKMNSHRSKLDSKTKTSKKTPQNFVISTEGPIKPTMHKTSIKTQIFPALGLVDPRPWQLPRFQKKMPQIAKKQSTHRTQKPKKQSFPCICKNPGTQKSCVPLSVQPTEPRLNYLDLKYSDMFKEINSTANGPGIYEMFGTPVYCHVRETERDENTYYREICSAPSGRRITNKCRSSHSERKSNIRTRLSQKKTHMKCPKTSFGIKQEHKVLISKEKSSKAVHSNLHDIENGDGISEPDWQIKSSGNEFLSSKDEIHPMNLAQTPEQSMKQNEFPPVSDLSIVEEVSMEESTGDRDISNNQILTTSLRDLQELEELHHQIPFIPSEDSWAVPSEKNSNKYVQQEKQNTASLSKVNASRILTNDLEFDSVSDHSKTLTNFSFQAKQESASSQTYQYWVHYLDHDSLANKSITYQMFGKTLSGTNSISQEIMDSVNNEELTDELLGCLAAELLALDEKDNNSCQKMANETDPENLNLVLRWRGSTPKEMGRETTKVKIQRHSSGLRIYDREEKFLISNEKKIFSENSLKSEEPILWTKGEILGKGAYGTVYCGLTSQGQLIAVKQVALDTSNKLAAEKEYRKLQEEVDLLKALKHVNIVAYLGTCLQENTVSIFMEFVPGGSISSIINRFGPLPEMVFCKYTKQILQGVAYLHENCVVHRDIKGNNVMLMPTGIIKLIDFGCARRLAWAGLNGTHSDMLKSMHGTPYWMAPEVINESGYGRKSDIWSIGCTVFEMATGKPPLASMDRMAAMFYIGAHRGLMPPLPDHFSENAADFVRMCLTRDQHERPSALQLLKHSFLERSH

[19] = biological target: D(3) dopamine receptor (Homo sapiens) (UniProt P35462); settings: Compound concentration 10.0 uM
D(3) dopamine receptor (Homo sapiens), sequence (P35462 whole entry): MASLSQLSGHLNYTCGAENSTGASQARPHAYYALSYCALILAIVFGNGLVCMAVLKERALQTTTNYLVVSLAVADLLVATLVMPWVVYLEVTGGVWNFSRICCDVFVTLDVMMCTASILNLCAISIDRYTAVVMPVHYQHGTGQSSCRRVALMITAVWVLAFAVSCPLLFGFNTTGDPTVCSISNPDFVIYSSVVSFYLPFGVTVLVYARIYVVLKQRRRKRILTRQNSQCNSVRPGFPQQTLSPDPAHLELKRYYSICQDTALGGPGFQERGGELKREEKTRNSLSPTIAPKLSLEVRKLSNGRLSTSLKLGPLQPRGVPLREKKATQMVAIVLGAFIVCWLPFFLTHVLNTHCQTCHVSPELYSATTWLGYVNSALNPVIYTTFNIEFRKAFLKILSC

[20] = biological target: Tyrosine-protein kinase JAK2 (Homo sapiens) (UniProt O60674); settings: Compound concentration 100.0 nM
Tyrosine-protein kinase JAK2 (Homo sapiens), sequence (O60674 whole entry): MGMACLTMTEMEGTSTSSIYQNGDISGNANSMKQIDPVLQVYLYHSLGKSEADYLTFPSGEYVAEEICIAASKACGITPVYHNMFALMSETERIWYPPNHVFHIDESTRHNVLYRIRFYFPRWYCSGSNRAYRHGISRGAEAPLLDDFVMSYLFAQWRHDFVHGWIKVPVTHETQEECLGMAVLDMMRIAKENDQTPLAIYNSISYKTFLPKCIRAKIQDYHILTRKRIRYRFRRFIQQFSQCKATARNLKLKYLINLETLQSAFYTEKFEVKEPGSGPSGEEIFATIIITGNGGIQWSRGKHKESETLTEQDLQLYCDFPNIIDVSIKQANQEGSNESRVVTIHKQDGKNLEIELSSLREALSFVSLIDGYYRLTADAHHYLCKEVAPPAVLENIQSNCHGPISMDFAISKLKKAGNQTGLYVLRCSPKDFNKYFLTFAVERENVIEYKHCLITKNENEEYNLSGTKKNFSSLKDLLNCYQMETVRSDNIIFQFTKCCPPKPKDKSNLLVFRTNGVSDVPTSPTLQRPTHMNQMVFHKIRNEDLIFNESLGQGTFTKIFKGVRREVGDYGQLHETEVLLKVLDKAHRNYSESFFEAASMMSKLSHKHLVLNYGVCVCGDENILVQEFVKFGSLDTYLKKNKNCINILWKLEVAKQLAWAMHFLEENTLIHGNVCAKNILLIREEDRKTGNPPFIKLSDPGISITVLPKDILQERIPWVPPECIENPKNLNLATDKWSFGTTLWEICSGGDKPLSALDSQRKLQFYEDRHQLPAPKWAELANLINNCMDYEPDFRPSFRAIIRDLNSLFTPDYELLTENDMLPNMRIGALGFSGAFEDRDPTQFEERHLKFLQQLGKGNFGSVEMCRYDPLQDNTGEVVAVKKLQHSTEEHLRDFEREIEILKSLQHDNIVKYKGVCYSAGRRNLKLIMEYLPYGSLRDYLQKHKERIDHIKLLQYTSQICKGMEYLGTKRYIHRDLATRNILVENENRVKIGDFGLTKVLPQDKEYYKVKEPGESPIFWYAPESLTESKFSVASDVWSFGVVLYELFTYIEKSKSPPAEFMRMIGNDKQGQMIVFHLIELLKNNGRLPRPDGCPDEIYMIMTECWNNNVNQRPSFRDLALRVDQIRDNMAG

[21] = biological target: Epidermal growth factor receptor (Homo sapiens) (UniProt P00533); settings: Compound concentration 100.0 nM
[22] = biological target: Myosin-IIIa (Homo sapiens) (UniProt Q8NEV4); settings: Compound concentration 100.0 nM
[23] = biological target: Tyrosine-protein kinase receptor Tie-1 (Homo sapiens) (UniProt P35590); settings: Compound concentration 100.0 nM
Tyrosine-protein kinase receptor Tie-1 (Homo sapiens), sequence (P35590 whole entry): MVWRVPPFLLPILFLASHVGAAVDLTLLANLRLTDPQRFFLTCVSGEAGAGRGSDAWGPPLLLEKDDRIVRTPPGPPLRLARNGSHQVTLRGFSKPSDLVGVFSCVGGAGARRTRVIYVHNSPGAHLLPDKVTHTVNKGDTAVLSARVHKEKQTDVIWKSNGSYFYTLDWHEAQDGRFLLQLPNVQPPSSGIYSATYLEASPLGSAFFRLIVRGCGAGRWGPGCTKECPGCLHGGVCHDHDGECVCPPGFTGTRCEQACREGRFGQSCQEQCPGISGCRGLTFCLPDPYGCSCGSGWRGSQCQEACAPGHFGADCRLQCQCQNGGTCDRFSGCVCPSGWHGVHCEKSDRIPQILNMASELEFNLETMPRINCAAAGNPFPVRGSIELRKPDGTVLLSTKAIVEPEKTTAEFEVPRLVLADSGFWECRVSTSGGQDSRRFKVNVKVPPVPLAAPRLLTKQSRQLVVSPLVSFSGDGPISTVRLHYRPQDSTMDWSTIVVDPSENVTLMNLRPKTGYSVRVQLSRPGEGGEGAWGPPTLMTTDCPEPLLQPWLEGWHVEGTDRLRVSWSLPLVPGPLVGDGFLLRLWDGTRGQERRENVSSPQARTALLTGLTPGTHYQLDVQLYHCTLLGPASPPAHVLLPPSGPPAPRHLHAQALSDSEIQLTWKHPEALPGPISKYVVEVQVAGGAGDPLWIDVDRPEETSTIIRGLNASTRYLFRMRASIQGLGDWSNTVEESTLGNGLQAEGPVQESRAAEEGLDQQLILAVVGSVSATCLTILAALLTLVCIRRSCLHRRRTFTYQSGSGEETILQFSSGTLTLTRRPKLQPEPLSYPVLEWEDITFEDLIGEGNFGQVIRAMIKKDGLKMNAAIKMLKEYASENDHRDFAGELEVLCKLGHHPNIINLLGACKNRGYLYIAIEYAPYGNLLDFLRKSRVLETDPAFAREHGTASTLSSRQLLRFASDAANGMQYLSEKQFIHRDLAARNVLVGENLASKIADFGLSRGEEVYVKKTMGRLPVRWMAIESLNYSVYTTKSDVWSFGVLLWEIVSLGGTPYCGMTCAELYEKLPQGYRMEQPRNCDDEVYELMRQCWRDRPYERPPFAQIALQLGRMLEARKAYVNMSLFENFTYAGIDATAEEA

[24] = biological target: Tyrosine-protein kinase TXK (Homo sapiens) (UniProt P42681); settings: Compound concentration 100.0 nM
[25] = biological target: Cytoplasmic tyrosine-protein kinase BMX (Homo sapiens) (UniProt P51813); settings: Compound concentration 100.0 nM
[26] = biological target: Serine/threonine-protein kinase 38-like (Homo sapiens) (UniProt Q9Y2H1); settings: Compound concentration 100.0 nM
[27] = biological target: Ephrin type-B receptor 1 (Homo sapiens) (UniProt P54762); settings: Compound concentration 100.0 nM
[28] = system: Epidermal growth factor receptor (Homo sapiens), P00533 [G719S]; settings: Compound concentration 100.0 nM
[29] = biological target: Ephrin type-A receptor 1 (Homo sapiens) (UniProt P21709); settings: Compound concentration 100.0 nM

CCOC(=O)c1cc2cc(-c3cc(C(=O)NCc4ccc(C(=O)O)cc4)nn3C)ccc2[nH]1 [BI 4394]
inactive: residual activity [1] 90% | residual activity [2] 100% | residual activity [3] 100% | residual activity [4] 100% | residual activity [5] 100% | residual activity [6] 94% | residual activity [7] 97% | residual activity [8] 90% | residual activity [9] 96% | residual activity [10] 91% | inhibition [11] -6.63% | residual activity [12] 100% | residual activity [13] 97% | residual activity [14] 98% | residual activity [15] 84% | residual activity [16] 100% | residual activity [17] 100% | residual activity [18] 75% | inhibition [19] 2.74% | residual activity [20] 95% | residual activity [21] 92% | residual activity [22] 100% | residual activity [23] 76% | residual activity [24] 90% | residual activity [25] 82% | residual activity [26] 72% | residual activity [27] 100% | residual activity [28] 100% | residual activity [29] 100%

Cn1nc(C(=O)NCc2ccc(C(=O)O)cc2)cc1-c1ccc2[nH]ccc2c1 [BI 4395]
inactive: residual activity [1] 100% | residual activity [2] 85% | residual activity [3] 76% | residual activity [4] 86% | residual activity [5] 100% | residual activity [6] 75% | residual activity [7] 93% | residual activity [8] 58% | residual activity [9] 91% | residual activity [10] 100% | inhibition [11] 2.13% | residual activity [12] 95% | residual activity [13] 100% | residual activity [14] 99% | residual activity [15] 100% | residual activity [16] 82% | residual activity [17] 89% | residual activity [18] 85% | inhibition [19] 1.67% | residual activity [20] 90% | residual activity [21] 100% | residual activity [22] 95% | residual activity [23] 93% | residual activity [24] 90% | residual activity [25] 98% | residual activity [26] 99% | residual activity [27] 87% | residual activity [28] 66% | residual activity [29] 95%
